Literature values as cited in US6972278B2, “Laundry detergent gel with suspended particles” (Unilever Home & Personal Care USA division of Conopco, Inc., priority 2004, dated 2005).

conditions: by fatty acid chain length; cited from Langmuir, Vol 16, pp 172-177, 2000

SMILES | Measured pKa value
CCCCCCCCCC(=O)O [Example 10] | 7.1~7.3
CCCCCCCC(=O)O [Example 8] | 6.3~6.5
CCCCCCCCCCCC(=O)O [Example 12] | ~7.5
CCCCCCCCCCCCCCCC(=O)O [Example 16] | 8.6~8.8
CCCCCCCCCCCCCC(=O)O [Example 14] | 8.1~8.2

same assay, conditions: by fatty acid chain length; cited from Proc. R. Soc. London, A133, 140, 1931

SMILES | Measured pKa value
CCCCCCCCCCCCCCCC(=O)O [Example 16] | 8.5
